Results: ChEMBL document CHEMBL1799987, “In vivo and in vitro SAR of tetracyclic MAPKAP-K2 (MK2) inhibitors. Part II” (Bioorg Med Chem Lett, 2010)
≈ marks a conversion by molar mass, not a printed value. Calls of active or inactive are those of the source. No cut-off for these calls is given here.

Tests used:
PBMC = assay: cells; conditions: Homo sapiens
Description: Inhibition of LPS-induced TNFalpha production in human PBMC preincubated for 30 mins measured after 3 hrs of LPS stimulation

Mus musculus [1] = species on record: Mus musculus; assay: animal or person; conditions: OF1, po, 1 h, read-out: INH
Description: Inhibition of LPS-induced TNFalpha production in OF1 mouse at 100 mg/kg, po after 1 hr by ELISA

Plasma = assay: Plasma concentration in OF1 mouse at 100 mg/kg, po; format: ADME, organism-based; design: dose 100 mg/kg, route oral; conditions: in vivo
[2] = Thermodynamic solubility of the compound at pH 6.8; format: physicochemical; conditions: buffer, read-out: Therm_solubility
[3] = Plasma concentration in antigen-induced arthritic rat model at 100 mg/kg, po BID measured 6 hrs post last dose; format: ADME, organism-based; design: dose 100 mg/kg, route oral
[4] = Plasma concentration in antigen-induced arthritic rat model at 100 mg/kg, po BID measured 2 hrs post last dose; format: ADME, organism-based; design: dose 100 mg/kg, route oral
Mus musculus [5] = assay: Antiarthritic activity in DBA/1 mouse assessed as inhibition of collagen-induced inflammatory cell infiltration at 100 mg/kg, po BID; format: functional, organism-based; design: dose 100 mg/kg
[6] = Plasma concentration in antigen-induced arthritic rat model at 100 mg/kg, po BID measured 16 hrs post last dose; format: ADME, organism-based; design: dose 100 mg/kg, route oral
Mus musculus [7] = assay: Antiarthritic activity in DBA/1 mouse assessed as inhibition of collagen-induced paw swelling at 100 mg/kg, po BID; format: functional, organism-based; design: dose 100 mg/kg
Rattus norvegicus [8] = assay: Antiarthritic activity in rat assessed as inhibition of antigen-induced paw swelling at 100 mg/kg, po BID; format: functional, organism-based; design: dose 100 mg/kg
Mus musculus [9] = assay: Antiarthritic activity in DBA/1 mouse assessed as inhibition of collagen-induced proteoglycan loss at 100 mg/kg, po BID; format: functional, organism-based; design: dose 100 mg/kg
[10] = Half life in rat at 1 mg/kg, po; format: ADME, organism-based; design: dose 1 mg/kg, route oral; conditions: in vivo
Mus musculus [11] = assay: Antiarthritic activity in DBA/1 mouse assessed as inhibition of collagen-induced joint damage at 100 mg/kg, po BID; format: functional, organism-based; design: dose 100 mg/kg
[12] = AUC in rat at 1 mg/kg, po; format: ADME, organism-based; design: dose 1 mg/kg, route oral; conditions: plasma
Mus musculus [13] = assay: Toxicity in collagen-induced arthritic DBA/1 mouse model assessed as body weight reduction at 100 mg/kg, po BID; format: organism-based; design: dose 100 mg/kg, route oral; conditions: in vivo
Rattus norvegicus [14] = assay: Volume of distribution at steady state in rat at 1 mg/kg, po; format: ADME, organism-based; design: dose 1 mg/kg, route oral; conditions: in vivo
[15] = Oral bioavailability in rat at 1 mg/kg; format: ADME, organism-based; conditions: in vivo
[16] = Clearance in rat at 1 mg/kg, po; format: ADME, organism-based; design: dose 1 mg/kg, route oral; conditions: in vivo
Mus musculus [17] = assay: Antiarthritic activity in DBA/1 mouse assessed as inhibition of collagen-induced joint erosion at 100 mg/kg, po BID; format: functional, organism-based; design: dose 100 mg/kg
Rattus norvegicus [18] = assay: Toxicity in antigen-induced arthritic rat model assessed as body weight reduction at 100 mg/kg, po BID; format: organism-based; design: dose 100 mg/kg, route oral; conditions: in vivo
[19] = Plasma concentration in collagen-induced arthritic DBA/1 mouse model at 100 mg/kg, po BID measured 2 hrs post last dose; format: ADME, organism-based; design: dose 100 mg/kg, route oral
[20] = Plasma concentration in collagen-induced arthritic DBA/1 mouse model at 100 mg/kg, po BID measured 6 hrs post last dose; format: ADME, organism-based; design: dose 100 mg/kg, route oral
[21] = Cmax in rat at 1 mg/kg, po; format: ADME, organism-based; design: dose 1 mg/kg, route oral; conditions: in vivo

Question: For COCCCOc1cncc(-c2cc3c(cn2)CCc2c-3[nH]c3c2C(=O)NCC32CN(C)C2)c1, which IC50 (PBMC) is on record?
Answer: The IC50 was 700 nM.

Question: What does the source list for COc1ccc(-c2cc3c(cn2)CCc2c-3[nH]c3c2C(=O)NCC32CC2)cc1?
Answer: inhibition in vivo at 100 mg/kg (Mus musculus [1]): 16%; concentration (Plasma): 600 nM; IC50 (PBMC): 1700 nM; solubility thermodynamic [2]: < 4 µM

Question: With CN1CC2(CNC(=O)c3c2[nH]c2c3CCc3cnc(-c4ccc(OCCN5CCOCC5)cc4)nc3-2)C1 as the molecule, how does the IC50 (PBMC) read?
Answer: Its IC50 is 100 nM.

Question: Which inhibition in vivo at 100 mg/kg (Mus musculus [1]) does the source give for CN1CC2(CNC(=O)c3c2[nH]c2c3CCc3cnc(-c4ccccc4F)cc3-2)C1 here?
Answer: The inhibition in vivo at 100 mg/kg was 90%.

Question: What about the concentration (Plasma) of the same molecule?
Answer: Its concentration is 6000 nM.

Question: What about the IC50 (PBMC) of the same molecule?
Answer: The IC50 was 100 nM.

Question: What about the solubility thermodynamic [2] of the same molecule?
Answer: The solubility thermodynamic was over 1000 µM.

Question: Which results are given for O=C1NC2(CC2)Cc2[nH]c3c(c21)CCc1cnc(-c2ccc(F)nc2)nc1-3?
Answer: IC50 (PBMC): 700 nM; solubility thermodynamic [2]: < 4 µM

Question: For CN1CC2(CNC(=O)c3c2[nH]c2c3CCc3cnc(-c4cccc(F)c4)cc3-2)C1, which inhibition in vivo at 100 mg/kg (Mus musculus [1]) is on record?
Answer: The inhibition in vivo at 100 mg/kg was 0%.

Question: What about the concentration (Plasma) of the same molecule?
Answer: The concentration was 1000 nM.

Question: What about the IC50 (PBMC) of the same molecule?
Answer: The IC50 was 200 nM.

Question: What about the solubility thermodynamic [2] of the same molecule?
Answer: The solubility thermodynamic was 10 µM (≈ 3.88 µg/mL).

Question: Which IC50 (PBMC) does the source give for CC(=O)N1CC2(CNC(=O)c3c2[nH]c2c3CCc3cnc(-c4ccccc4F)cc3-2)C1 here?
Answer: The IC50 was 6500 nM.

Question: What about the solubility thermodynamic [2] of the same molecule?
Answer: The solubility thermodynamic was 24 µM (≈ 9.99 µg/mL).

Question: Which results are given for CN1CC2(CNC(=O)c3c4c(n(C)c32)-c2cc(-c3ccccc3F)ncc2CC4)C1?
Answer: IC50 (PBMC): 1100 nM; solubility thermodynamic [2]: 41 µM (≈ 16.5 µg/mL)

Question: Which results are given for O=C1NCC2(CNC2)c2oc3c(c21)CCc1cnc(-c2cccc(F)c2)cc1-3?
Answer: IC50 (PBMC): 2500 nM; solubility thermodynamic [2]: 51 µM (≈ 19.1 µg/mL)

Question: With CN1CC2(CNC(=O)c3c2[nH]c2c3CCc3cnc(-c4ccc(OCCN5CCOCC5)cc4)cc3-2)C1 as the molecule, how does the IC50 (PBMC) read?
Answer: Its IC50 is 600 nM.

Question: What does the source list for COc1ccc(-c2cc3c(cn2)CCc2c-3[nH]c3c2C(=O)NC2(C3)CN(C)C2)cc1?
Answer: IC50 (PBMC): 1100 nM; solubility thermodynamic [2]: < 4 µM

Question: Which concentration at 6 h [3] does the source give for O=C1NC2(CC2)Cc2[nH]c3c(c21)CCc1cnc(-c2ccc(F)nc2)cc1-3 here?
Answer: The concentration at 6 h was 9800 nM.

Question: And the concentration at 2 h [4]?
Answer: Its concentration at 2 h is 11700 nM.

Question: And the Activity (Mus musculus [5])?
Answer: Its Activity is “Active”.

Question: And the concentration at 16 h [6]?
Answer: Its concentration at 16 h is 500 nM.

Question: What about the Activity (Mus musculus [7]) of the same molecule?
Answer: The Activity was “Active”.

Question: What about the Activity (Rattus norvegicus [8]) of the same molecule?
Answer: Its Activity is “Active”.

Question: And the Activity (Mus musculus [9])?
Answer: Its Activity is “Active”.

Question: And the half-life [10]?
Answer: The half-life was 1.3 h.

Question: What about the inhibition in vivo at 100 mg/kg (Mus musculus [1]) of the same molecule?
Answer: The inhibition in vivo at 100 mg/kg was 96%.

Question: And the Activity (Mus musculus [11])?
Answer: Its Activity is “Active”.

Question: And the AUC [12]?
Answer: The AUC was 2 µM·h.

Question: And the concentration (Plasma)?
Answer: Its concentration is 30000 nM.

Question: What about the Activity (Mus musculus [13]) of the same molecule?
Answer: The Activity was “Non-toxic”.

Question: What about the Vdss (Rattus norvegicus [14]) of the same molecule?
Answer: The Vdss was 1.9 L/kg.

Question: What about the bioavailability [15] of the same molecule?
Answer: The bioavailability was 24%.

Question: What about the CL/F [16] of the same molecule?
Answer: Its CL/F is 12 mL/min/kg.

Question: What about the IC50 (PBMC) of the same molecule?
Answer: Its IC50 is 300 nM.

Question: What about the Activity (Mus musculus [17]) of the same molecule?
Answer: The Activity was “Active”.

Question: And the Activity (Rattus norvegicus [18])?
Answer: Its Activity is “Non-toxic”.

Question: And the concentration at 2 h [19]?
Answer: The concentration at 2 h was 16000 nM.

Question: What about the concentration at 6 h [20] of the same molecule?
Answer: Its concentration at 6 h is 2400 nM.

Question: What about the solubility thermodynamic [2] of the same molecule?
Answer: Its solubility thermodynamic is 9 µM (≈ 3.24 µg/mL).

Question: And the Cmax [21]?
Answer: Its Cmax is 105 nM.

Question: With CCN1CC2(CNC(=O)c3c2[nH]c2c3CCc3cnc(-c4ccccc4F)cc3-2)C1 as the molecule, how does the IC50 (PBMC) read?
Answer: Its IC50 is 700 nM.

Question: And the solubility thermodynamic [2]?
Answer: Its solubility thermodynamic is 950 µM (≈ 382 µg/mL).

Question: What does the source list for COc1ccc(-c2cc3c(cn2)CCc2c-3[nH]c3c2C(=O)NC2(CNC2)C3)cc1?
Answer: IC50 (PBMC): 1300 nM; solubility thermodynamic [2]: 32 µM (≈ 12.4 µg/mL)

Question: What does the source list for O=C1NC2(CC2)Cc2[nH]c3c(c21)CCc1cnc(-c2ccccc2F)nc1-3?
Answer: IC50 (PBMC): 2300 nM; solubility thermodynamic [2]: 8 µM (≈ 2.88 µg/mL)

Question: Which results are given for COc1ccc(-c2ncc3c(n2)-c2[nH]c4c(c2CC3)C(=O)NCC42CN(C)C2)cc1?
Answer: IC50 (PBMC): 100 nM; solubility thermodynamic [2]: 43 µM (≈ 17.3 µg/mL)

Question: For COc1ccc(-c2ncc3c(n2)-c2[nH]c4c(c2CC3)C(=O)NCC42CC2)cc1, which IC50 (PBMC) is on record?
Answer: The IC50 was 400 nM.

Question: And the solubility thermodynamic [2]?
Answer: Its solubility thermodynamic is under 4 µM.

Question: Which IC50 (PBMC) does the source give for O=C1NCC2(CN(CCF)C2)c2[nH]c3c(c21)CCc1cnc(-c2ccccc2F)cc1-3 here?
Answer: Its IC50 is 1500 nM.

Question: Which IC50 (PBMC) does the source give for O=C1NC2(CC2)Cc2[nH]c3c(c21)CCc1cnc(-c2ccc(OCCN4CCOCC4)cc2)nc1-3 here?
Answer: Its IC50 is 300 nM.

Question: And the solubility thermodynamic [2]?
Answer: Its solubility thermodynamic is under 4 µM.

Question: What does the source list for CN1CC2(CNC(=O)c3c2[nH]c2c3Cc3cnc(-c4ccccc4F)cc3-2)C1?
Answer: IC50 (PBMC): > 10000 nM; solubility thermodynamic [2]: 69 µM (≈ 25.8 µg/mL)

Question: Which solubility thermodynamic [2] does the source give for COc1ccc(-c2ncc3c(n2)-c2[nH]c4c(c2CC3)C(=O)NC2(CC2)C4)cc1 here?
Answer: The solubility thermodynamic was under 4 µM.

Question: For COCCOc1cncc(-c2cc3c(cn2)CCCc2c-3[nH]c3c2C(=O)NCC3)c1, which IC50 (PBMC) is on record?
Answer: Its IC50 is 1100 nM.

Question: What about the solubility thermodynamic [2] of the same molecule?
Answer: Its solubility thermodynamic is 21 µM (≈ 8.49 µg/mL).

Question: With CN1CC2(CNC(=O)c3c2[nH]c2c3CCc3cnc(-c4ccc(F)nc4)cc3-2)C1 as the molecule, how does the inhibition in vivo at 100 mg/kg (Mus musculus [1]) read?
Answer: Its inhibition in vivo at 100 mg/kg is 26%.

Question: What about the concentration (Plasma) of the same molecule?
Answer: The concentration was 600 nM.

Question: And the IC50 (PBMC)?
Answer: The IC50 was 100 nM.

Question: What about the solubility thermodynamic [2] of the same molecule?
Answer: Its solubility thermodynamic is 47 µM (≈ 18.3 µg/mL).
